Reference: BindingDB's records for doi:10.1016/j.bioorg.2016.12.002 (China Pharmaceutical University, 2017)
pIC50: −log10 of the molar value.

Target: Hepatocyte growth factor receptor/Proto-oncogene tyrosine-protein kinase receptor Ret (Homo sapiens, UniProt P07949+P08581)
Assay: In Vitro c-Met Enzyme Assay
Procedure: The c-Met kinase activity as tested with enzyme-linked immunosorbent assays (ELISAs) as previously reported protocol [Qiang et al., Bioorg. Med. Chem., 24:3353-3358; Shi et al., Bioorg. Med. Chem., 22:4735-4744]. Briefly, reaction cocktail containing c-met kinase and various concentrations of measured compound or 0.1% DMSO (negative control) was incubated at 37 °C for five minutes. Then the mixture of ATP and substrate peptide was added and incubated for another 30 min. Afer that, the reaction was terminated and transferred into a pre-coated 96-well plate, and incubated for another 1 h at 37 °C. Phosphate-buffered saline (PBS) containing 0.1% Tween 20 (T-PBS) was applied to wash the plate three times. anti-phosphotyrosine (PY99) antibody was then added. Horseradish peroxidase-conjugated goat anti-mouse IgG was added after 30 min. Finally, the plate was analyzed with multi-well spectrophotometer at […].

Sequence of Hepatocyte growth factor receptor/Proto-oncogene tyrosine-protein kinase receptor Ret (P08581 whole entry): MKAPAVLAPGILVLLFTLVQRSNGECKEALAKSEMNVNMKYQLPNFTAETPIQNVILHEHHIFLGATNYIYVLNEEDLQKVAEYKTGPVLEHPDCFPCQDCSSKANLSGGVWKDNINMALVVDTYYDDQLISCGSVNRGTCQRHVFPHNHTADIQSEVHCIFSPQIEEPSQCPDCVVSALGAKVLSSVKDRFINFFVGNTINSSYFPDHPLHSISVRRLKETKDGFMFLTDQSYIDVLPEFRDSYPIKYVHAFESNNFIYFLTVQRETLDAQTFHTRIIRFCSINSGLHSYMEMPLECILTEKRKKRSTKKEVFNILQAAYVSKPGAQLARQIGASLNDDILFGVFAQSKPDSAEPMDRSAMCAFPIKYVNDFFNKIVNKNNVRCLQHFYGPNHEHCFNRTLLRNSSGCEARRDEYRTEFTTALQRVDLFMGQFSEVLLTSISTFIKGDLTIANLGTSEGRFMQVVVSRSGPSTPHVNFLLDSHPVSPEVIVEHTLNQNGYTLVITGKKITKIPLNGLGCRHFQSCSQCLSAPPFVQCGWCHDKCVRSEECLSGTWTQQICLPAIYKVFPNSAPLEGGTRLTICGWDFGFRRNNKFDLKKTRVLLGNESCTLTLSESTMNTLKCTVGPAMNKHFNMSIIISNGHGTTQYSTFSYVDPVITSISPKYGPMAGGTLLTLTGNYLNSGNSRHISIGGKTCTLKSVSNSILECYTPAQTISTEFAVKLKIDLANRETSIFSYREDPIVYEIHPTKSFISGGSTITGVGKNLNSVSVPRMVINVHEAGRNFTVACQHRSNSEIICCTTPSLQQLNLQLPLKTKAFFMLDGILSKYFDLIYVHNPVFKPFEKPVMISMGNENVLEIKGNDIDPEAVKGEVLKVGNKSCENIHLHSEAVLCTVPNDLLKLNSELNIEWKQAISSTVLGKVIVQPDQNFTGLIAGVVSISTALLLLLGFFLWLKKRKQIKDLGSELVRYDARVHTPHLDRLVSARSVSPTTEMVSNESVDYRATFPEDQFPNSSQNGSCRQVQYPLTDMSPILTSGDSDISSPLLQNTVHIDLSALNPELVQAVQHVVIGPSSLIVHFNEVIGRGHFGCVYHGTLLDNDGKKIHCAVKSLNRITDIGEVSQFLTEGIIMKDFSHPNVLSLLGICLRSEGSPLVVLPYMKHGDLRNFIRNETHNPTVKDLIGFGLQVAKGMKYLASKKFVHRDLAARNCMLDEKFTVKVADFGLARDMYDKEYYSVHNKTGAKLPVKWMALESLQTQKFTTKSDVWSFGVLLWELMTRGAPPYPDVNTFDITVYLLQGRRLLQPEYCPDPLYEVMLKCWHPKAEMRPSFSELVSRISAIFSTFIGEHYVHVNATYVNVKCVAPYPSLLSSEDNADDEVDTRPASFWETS
Sequence of Hepatocyte growth factor receptor/Proto-oncogene tyrosine-protein kinase receptor Ret (P07949 whole entry): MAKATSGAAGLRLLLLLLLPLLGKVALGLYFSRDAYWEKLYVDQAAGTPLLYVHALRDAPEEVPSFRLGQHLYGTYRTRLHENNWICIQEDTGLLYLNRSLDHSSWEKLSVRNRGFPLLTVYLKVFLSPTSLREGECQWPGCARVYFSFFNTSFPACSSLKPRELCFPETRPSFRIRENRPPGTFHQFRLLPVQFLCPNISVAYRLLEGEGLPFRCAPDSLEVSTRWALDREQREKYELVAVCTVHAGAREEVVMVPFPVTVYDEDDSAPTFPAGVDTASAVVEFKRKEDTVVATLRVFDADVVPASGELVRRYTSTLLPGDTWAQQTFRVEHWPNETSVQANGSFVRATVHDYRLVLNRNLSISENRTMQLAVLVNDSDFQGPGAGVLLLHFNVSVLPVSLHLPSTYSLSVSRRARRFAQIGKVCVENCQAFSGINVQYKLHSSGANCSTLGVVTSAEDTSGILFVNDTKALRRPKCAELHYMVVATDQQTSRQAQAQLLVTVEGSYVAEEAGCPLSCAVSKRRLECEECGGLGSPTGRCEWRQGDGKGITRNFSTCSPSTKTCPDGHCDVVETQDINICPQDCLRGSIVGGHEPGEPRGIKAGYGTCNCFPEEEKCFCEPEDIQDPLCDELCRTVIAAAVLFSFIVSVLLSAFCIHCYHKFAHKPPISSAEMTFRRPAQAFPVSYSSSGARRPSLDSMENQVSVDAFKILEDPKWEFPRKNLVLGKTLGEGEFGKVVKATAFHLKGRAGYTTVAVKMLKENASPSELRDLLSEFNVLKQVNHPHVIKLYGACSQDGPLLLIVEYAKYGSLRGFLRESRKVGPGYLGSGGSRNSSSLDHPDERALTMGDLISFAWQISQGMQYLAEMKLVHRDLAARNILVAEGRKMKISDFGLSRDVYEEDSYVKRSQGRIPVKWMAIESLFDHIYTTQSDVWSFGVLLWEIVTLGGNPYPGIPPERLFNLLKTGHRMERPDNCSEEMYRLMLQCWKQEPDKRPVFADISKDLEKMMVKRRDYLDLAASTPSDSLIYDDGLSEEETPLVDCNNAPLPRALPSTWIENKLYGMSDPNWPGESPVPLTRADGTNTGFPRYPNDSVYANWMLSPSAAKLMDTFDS

Row | pIC50 | SMILES
1 | 4.91 | Clc1ccc(-c2cn3cccc(COc4nnc5ccc(Cl)nn45)c3n2)c(Cl)c1 [6-Chloro-3-((2-(2,4-dichlorophenyl)imidazo[1,2-a]pyridin-8-yl)methoxy)-[1,2,4]triazolo[4,3-b] pyridazine (7g)]
2 | 4.91 | Clc1ccc(Cl)c(-c2cn3cccc(COc4nnc5ccc(Cl)nn45)c3n2)c1 [6-chloro-3-((2-(2,5-dichlorophenyl)imidazo[1,2-a]pyridin-8-yl)methoxy)-[1,2,4]triazolo[4,3-b] pyridazine (7e)]
3 | 7.22 | COc1ccc2c(OCc3nnc4ccc(-c5ccccc5)nn34)ccnc2c1 [7-methoxy-4-({6-phenyl-[1,2,4]triazolo[4,3-a]pyridazin-3-yl}methoxy)quinoline]
